Results taken from ChEMBL document CHEMBL1208782, “Synthesis and pharmacological validation of a novel series of non-steroidal FXR agonists” (Bioorg Med Chem Lett, 2010).

What was measured:
Assay type in all cases: functional, cell-based
[1] = target: T1, Glucocorticoid receptor (Homo sapiens, UniProt P04150); assay: Agonist activity at GR-LBD expressed in HEK293 cells assessed as Gal4-DBD interaction by cellular mammalian one hybrid assay
T1 sequence (P04150 whole entry): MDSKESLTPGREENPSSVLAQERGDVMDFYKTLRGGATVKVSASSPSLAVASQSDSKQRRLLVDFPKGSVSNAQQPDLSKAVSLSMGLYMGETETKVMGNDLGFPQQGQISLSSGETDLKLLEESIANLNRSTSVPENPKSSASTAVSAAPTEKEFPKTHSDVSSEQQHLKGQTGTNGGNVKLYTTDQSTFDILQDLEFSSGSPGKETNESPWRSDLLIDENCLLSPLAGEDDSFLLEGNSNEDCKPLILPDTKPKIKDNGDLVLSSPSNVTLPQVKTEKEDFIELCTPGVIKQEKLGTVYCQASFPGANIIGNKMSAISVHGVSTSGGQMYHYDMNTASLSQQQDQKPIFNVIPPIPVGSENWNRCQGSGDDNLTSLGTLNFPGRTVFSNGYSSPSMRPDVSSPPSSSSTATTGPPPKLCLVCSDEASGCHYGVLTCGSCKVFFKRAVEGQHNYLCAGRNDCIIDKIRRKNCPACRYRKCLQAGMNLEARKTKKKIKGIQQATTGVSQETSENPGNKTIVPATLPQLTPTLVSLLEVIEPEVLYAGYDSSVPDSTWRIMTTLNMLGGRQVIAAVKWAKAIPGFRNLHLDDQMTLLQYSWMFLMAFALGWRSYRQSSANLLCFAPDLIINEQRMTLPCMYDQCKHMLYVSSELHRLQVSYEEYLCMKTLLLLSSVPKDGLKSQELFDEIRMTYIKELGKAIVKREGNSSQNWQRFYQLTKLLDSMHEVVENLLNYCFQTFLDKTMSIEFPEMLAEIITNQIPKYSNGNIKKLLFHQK

[2] = target: T2, Peroxisome proliferator-activated receptor delta (Homo sapiens) (UniProt Q03181); assay: Agonist activity at PPAR-beta/delta-LBD expressed in HEK293 cells assessed as Gal4-DBD interaction by cellular mammalian one hybrid assay relative to control
T2 sequence (whole entry): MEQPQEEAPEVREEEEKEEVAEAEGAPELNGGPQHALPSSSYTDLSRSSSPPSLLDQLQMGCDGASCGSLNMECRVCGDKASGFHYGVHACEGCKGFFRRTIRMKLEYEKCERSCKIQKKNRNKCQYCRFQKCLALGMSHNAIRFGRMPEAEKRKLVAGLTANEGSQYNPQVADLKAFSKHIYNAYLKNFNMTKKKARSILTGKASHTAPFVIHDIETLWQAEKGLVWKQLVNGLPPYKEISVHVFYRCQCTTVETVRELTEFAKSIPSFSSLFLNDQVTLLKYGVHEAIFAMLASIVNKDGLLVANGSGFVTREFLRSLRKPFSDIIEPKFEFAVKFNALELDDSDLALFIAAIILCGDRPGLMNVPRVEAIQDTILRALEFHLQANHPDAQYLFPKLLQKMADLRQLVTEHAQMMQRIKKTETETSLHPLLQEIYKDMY

[3] = target: T3, Retinoic acid receptor RXR-alpha (Homo sapiens) (UniProt P19793); assay: Agonist activity at RXRalpha-LBD expressed in HEK293 cells assessed as Gal4-DBD interaction by cellular mammalian one hybrid assay relative to retinoic acid
T3 sequence (whole entry): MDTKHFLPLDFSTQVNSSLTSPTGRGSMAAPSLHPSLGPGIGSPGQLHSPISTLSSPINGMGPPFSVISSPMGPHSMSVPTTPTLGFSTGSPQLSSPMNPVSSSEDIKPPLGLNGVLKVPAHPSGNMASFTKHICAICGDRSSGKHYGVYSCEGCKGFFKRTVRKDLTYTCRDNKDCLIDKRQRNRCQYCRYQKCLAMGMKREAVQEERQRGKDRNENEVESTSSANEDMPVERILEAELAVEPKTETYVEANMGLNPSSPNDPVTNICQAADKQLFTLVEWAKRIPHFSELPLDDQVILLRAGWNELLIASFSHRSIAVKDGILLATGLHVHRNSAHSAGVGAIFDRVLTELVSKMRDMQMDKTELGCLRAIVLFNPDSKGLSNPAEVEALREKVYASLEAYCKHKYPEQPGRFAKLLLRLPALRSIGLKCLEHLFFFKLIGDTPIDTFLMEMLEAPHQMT

[4] = target: T4, Retinoic acid receptor alpha (Homo sapiens) (UniProt P10276); assay: Agonist activity at RARalpha-LBD expressed in HEK293 cells assessed as Gal4-DBD interaction by cellular mammalian one hybrid assay relative to retinoic acid
T4 sequence (whole entry): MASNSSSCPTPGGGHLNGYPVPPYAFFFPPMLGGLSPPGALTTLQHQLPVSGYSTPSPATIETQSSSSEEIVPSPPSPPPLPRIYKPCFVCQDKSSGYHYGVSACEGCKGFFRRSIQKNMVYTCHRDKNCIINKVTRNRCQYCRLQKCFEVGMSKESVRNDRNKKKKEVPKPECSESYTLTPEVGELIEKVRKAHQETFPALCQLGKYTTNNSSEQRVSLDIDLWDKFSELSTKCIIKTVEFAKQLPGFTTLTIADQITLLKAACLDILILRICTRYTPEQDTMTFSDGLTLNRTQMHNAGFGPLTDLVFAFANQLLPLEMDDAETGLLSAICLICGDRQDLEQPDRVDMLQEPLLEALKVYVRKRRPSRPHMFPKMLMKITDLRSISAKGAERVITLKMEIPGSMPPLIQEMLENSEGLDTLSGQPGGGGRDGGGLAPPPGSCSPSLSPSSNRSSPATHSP

EC50 [1] [µM]	Efficacy [2] [%]	Efficacy [3] [%]	Efficacy [4] [%]	SMILES
> 10	0	0	0	CN(Cc1cccc(C(=O)O)c1)c1ccc(OCc2c(-c3c(Cl)cccc3Cl)noc2C2CC2)nc1C(F)(F)F
> 10	0	0	0	CN(Cc1ccc(C(=O)O)cc1)c1ccc(OCc2c(-c3c(Cl)cccc3Cl)noc2C2CC2)nc1C(F)(F)F
> 10	0	0	0	CC(C)c1onc(-c2c(Cl)cccc2Cl)c1COc1ccc(N(C)Cc2ccc(C(=O)O)cc2)c(C(F)(F)F)n1
